From US9834542B2, “LXR modulators” (BRISTOL-MYERS SQUIBB COMPANY, priority 2013, dated 2017) come the findings set out here.

For the assay, the target named is T1, LXRβ (Homo sapiens, UniProt P55055).
T1 construct: Co-transfection expression plasmids, comprising full-length LXRα (pCMX-h LXRα[…] or LXRβ (pCMX-hLXRβ)); expressed in transfected cells; host or cells: CV-1 African Green Monkey Kidney Cells
T1 sequence (P55055 1-460): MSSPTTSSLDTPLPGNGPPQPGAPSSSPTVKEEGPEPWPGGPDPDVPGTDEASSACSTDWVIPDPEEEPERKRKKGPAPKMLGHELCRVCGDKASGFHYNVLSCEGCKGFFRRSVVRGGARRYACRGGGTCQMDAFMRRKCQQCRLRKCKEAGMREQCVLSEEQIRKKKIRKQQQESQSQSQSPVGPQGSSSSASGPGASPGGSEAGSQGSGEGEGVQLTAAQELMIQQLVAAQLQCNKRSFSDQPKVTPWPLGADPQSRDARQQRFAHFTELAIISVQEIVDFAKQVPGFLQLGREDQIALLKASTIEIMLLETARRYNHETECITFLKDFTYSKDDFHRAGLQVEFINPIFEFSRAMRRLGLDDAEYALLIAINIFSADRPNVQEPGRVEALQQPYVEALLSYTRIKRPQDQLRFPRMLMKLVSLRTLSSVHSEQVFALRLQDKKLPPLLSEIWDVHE
T1 sequence (P19793 1-462 partner): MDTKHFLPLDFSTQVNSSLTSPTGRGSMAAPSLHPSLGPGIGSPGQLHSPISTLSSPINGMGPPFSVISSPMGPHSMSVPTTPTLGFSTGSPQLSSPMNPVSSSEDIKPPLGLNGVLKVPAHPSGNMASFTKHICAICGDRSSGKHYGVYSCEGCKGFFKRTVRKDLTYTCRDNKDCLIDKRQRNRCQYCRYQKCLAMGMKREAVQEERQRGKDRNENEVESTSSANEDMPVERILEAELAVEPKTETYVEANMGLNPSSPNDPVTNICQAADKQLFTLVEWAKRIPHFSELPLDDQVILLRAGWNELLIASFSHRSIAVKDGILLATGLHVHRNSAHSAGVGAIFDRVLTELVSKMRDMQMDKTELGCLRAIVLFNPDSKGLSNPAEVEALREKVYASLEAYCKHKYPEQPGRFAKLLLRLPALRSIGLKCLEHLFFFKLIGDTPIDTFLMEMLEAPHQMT
Kind of assay: Co-transfection assay (LXRE luciferase reporter), LXRβ. The class given is cell-based. Particulars: for EC50: CV-1 cells transfected with pCMX-hLXRβ and LXREx1-Tk-Luciferase, 20 hours incubation; for Emax: LXRβ co-transfection, relative to high control 1-(2,4-difluorobenzyl)-2-oxo-6-(4-phenoxyphenyl)-4-(trifluoromethyl)-1,2-dihydropyridine-3-carbonitrile, read-out: % Efficacy. The essentials:
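Cell-based LXRβ agonism measured as LXRE-luciferase induction in transiently transfected CV-1 cells after 20 h treatment. Potency is the curve-fit EC50; efficacy is expressed as percent of a full-agonist control's maximal response.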
For orientation: A reporter such as luciferase makes a cellular process visible.

Structures are written as SMILES.

A word on the EC50: it is the concentration that produces a half-maximal response. Take `Cc1nc(C(F)(F)F)cn1-c1ccc(-c2cc(F)c(CO)c(S(C)(=O)=O)c2)cc1-c1cnnn1-c1ccc(OC(F)(F)F)cc1` [Example 244, [3-fluoro-5-(methylsulfonyl)-4′-[2-methyl-4-(trifluoromethyl)-1H-imidazol-1-yl]-3′-(1-{4-[(trifluoromethyl)oxy]phenyl}-1H-1,2,3-triazol-5-yl)biphenyl-4-yl]methanol]: the 50% effective concentration (EC50) worked out at 223 nM and the Emax was found to be 110%.
Regarding `Cc1nc(C(F)F)cn1-c1ccc(-c2cccc(S(C)(=O)=O)c2)cc1-c1cnnn1Cc1ccc(Cl)cc1` [Example 245, 1-(4-chlorobenzyl)-5-(4-(4-(difluoromethyl)-2-methyl-1H-imidazol-1-yl)-3′-(methylsulfonyl)-[1,1′-biphenyl]-3-yl)-1H-1,2,3-triazole], the half-maximal effective concentration (EC50) came out at 216 nM and the Emax is 102%.
As for `CNS(=O)(=O)c1cccc(-c2ccc(-n3cc(C(F)F)nc3C)c(-c3cnnn3Cc3ccc(Cl)cc3)c2)c1` [Example 246, 3′-(1-(4-chlorobenzyl)-1H-1,2,3-triazol-5-yl)-4′-(4-(difluoromethyl)-2-methyl-1H-imidazol-1-yl)-N-methyl-[1,1′-biphenyl]-3-sulfonamide], a half-maximal effect (EC50) was put at 475 nM and the Emax was found to be 91%.
Regarding `CCS(=O)(=O)c1cccc(-c2ccc(-n3cc(C(F)F)nc3C)c(-c3cnnn3Cc3ccc(Cl)cc3)c2)c1` [Example 247, 1-(4-chlorobenzyl)-5-(4-(4-(difluoromethyl)-2-methyl-1H-imidazol-1-yl)-3′-(ethylsulfonyl)-[1,1′-biphenyl]-3-yl)-1H-1,2,3-triazole], the response was half-maximal at 315 nM (EC50) and the Emax is 99%.
In the case of `Cc1nc(C(F)F)cn1-c1ccc(-c2cc(F)c(CO)c(S(C)(=O)=O)c2)cc1-c1cnnn1Cc1ccc(Cl)cc1` [Example 248, (3′-(1-(4-chlorobenzyl)-1H-1,2,3-triazol-5-yl)-4′-(4-(difluoromethyl)-2-methyl-1H-imidazol-1-yl)-3-fluoro-5-(methylsulfonyl)-[1,1′-biphenyl]-4-yl)methanol], it took 185 nM to reach a half-maximal effect (EC50) and the Emax is 88%.
The corresponding values for `Cc1nc(C(F)(F)F)cn1-c1ccc(-c2cccc(S(C)(=O)=O)c2)cc1-c1ccnn1-c1ccc(Cl)cc1` [Example 286, 1-(4-chlorophenyl)-5-{3′-(methylsulfonyl)-4-[2-methyl-4-(trifluoromethyl)-1H-imidazol-1-yl]biphenyl-3-yl}-1H-pyrazole] are 152 nM and 84%.
For `Cc1cc(-c2cc(-c3cc(F)c(CO)c(S(C)(=O)=O)c3)ccc2-n2cc(C(F)(F)F)nc2C)n(-c2ccc(OC(F)F)cc2)n1` [Example 287, (3′-(1-(4-(difluoromethoxy)phenyl)-3-methyl-1H-pyrazol-5-yl)-3-fluoro-4′-(2-methyl-4-(trifluoromethyl)-1H-imidazol-1-yl)-5-(methylsulfonyl)biphenyl-4-yl)methanol], a half-maximal response (EC50) required 26 nM and the Emax was determined as 80%.
The corresponding values for `Cc1nc(C(F)(F)F)cn1-c1ccc(-c2cc(F)c(CO)c(S(C)(=O)=O)c2)cc1-c1ccnn1-c1ccc(Cl)cc1` [Example 288, {3′-[1-(4-chlorophenyl)-1H-pyrazol-5-yl]-3-fluoro-5-(methylsulfonyl)-4′-[2-methyl-4-(trifluoromethyl)-1H-imidazol-1-yl]biphenyl-4-yl}methanol] are 74 nM and 81%.
The like results for `Cc1nc(C(F)(F)F)cn1-c1ccc(-c2cccc(S(C)(=O)=O)c2)cc1-c1ccnn1-c1ccc(OC(F)(F)F)cc1` [Example 289, 5-{3′-(methylsulfonyl)-4-[2-methyl-4-(trifluoromethyl)-1H-imidazol-1-yl]biphenyl-3-yl}-1-{4-[(trifluoromethyl)oxy]phenyl}-1H-pyrazole] were, in that order, 122 nM and 75%.
The like results for `Cc1cc(-c2cc(-c3cc(F)c(CO)c(S(C)(=O)=O)c3)ccc2-n2cc(C(F)(F)F)nc2C)n(-c2ccc(Cl)cc2)n1` [Example 290, {3′-[1-(4-chlorophenyl)-3-methyl-1H-pyrazol-5-yl]-3-fluoro-5-(methylsulfonyl)-4′-[2-methyl-4-(trifluoromethyl)-1H-imidazol-1-yl]biphenyl-4-yl}methanol] were, in that order, 30 nM and 43%.
`Cc1cc(-c2cc(-c3cccc(S(C)(=O)=O)c3)ccc2-n2cc(C(F)(F)F)nc2C)n(-c2ccc(OC(F)(F)F)cc2)n1` [Example 291, 3-methyl-5-{3′-(methylsulfonyl)-4-[2-methyl-4-(trifluoromethyl)-1H-imidazol-1-yl]biphenyl-3-yl}-1-{4-[(trifluoromethyl)oxy]phenyl}-1H-pyrazole]: the half-maximal effective concentration (EC50) was 47 nM and the Emax was determined as 69%.
The like results for `Cc1nc(C(F)(F)F)cn1-c1ccc(-c2cc(F)c(CO)c(S(C)(=O)=O)c2)cc1-c1ccnn1-c1ccc(OC(F)(F)F)cc1` [Example 292, [3-fluoro-5-(methylsulfonyl)-4′-[2-methyl-4-(trifluoromethyl)-1H-imidazol-1-yl]-3′-(1-{4-[(trifluoromethyl)oxy]phenyl}-1H-pyrazol-5-yl)biphenyl-4-yl]methanol] were, in that order, 65 nM and 70%.
Consider `Cc1nc(C(F)(F)F)cn1-c1ccc(-c2cccc(S(C)(=O)=O)c2)cc1-c1ccnn1-c1ccc2c(c1)OC(F)(F)O2` [Example 293, 1-(2,2-difluorobenzo[d][1,3]dioxol-5-yl)-5-(4-(2-methyl-4-(trifluoromethyl)-1H-imidazol-1-yl)-3′-(methylsulfonyl)biphenyl-3-yl)-1H-pyrazole], for which a half-maximal response (EC50) required 114 nM and the Emax was found to be 97%.
On to `Cc1nc(C(F)(F)F)cn1-c1ccc(-c2cc(F)c(CO)c(S(C)(=O)=O)c2)cc1-c1ccnn1-c1ccc2c(c1)OC(F)(F)O2` [Example 294, (3′-(1-(2,2-difluorobenzo[d][1,3]dioxol-5-yl)-1H-pyrazol-5-yl)-3-fluoro-4′-(2-methyl-4-(trifluoromethyl)-1H-imidazol-1-yl)-5-(methylsulfonyl)biphenyl-4-yl)methanol], for which the concentration giving a half-maximal response (EC50) came out at 57 nM and the Emax amounted to 87%.
The like results for `Cc1nc(C(F)(F)F)cn1-c1ccc(-c2ccc(CO)c(S(C)(=O)=O)c2)cc1-c1ccnn1-c1ccc2c(c1)OC(F)(F)O2` [Example 295, (3′-(1-(2,2-difluorobenzo[d][1,3]dioxol-5-yl)-1H-pyrazol-5-yl)-4′-(2-methyl-4-(trifluoromethyl)-1H-imidazol-1-yl)-3-(methylsulfonyl)biphenyl-4-yl)methanol] were, in that order, 40 nM and 80%.
As for `Cc1nc(C(F)(F)F)cn1-c1ccc(-c2cccc(S(C)(=O)=O)c2)cc1-c1ccnn1-c1ccc(Cl)nc1` [Example 296, 2-chloro-5-(5-(4-(2-methyl-4-(trifluoromethyl)-1H-imidazol-1-yl)-3′-(methylsulfonyl)biphenyl-3-yl)-1H-pyrazol-1-yl)pyridine], a half-maximal effect (EC50) was put at 572 nM and the Emax was found to be 75%.
The like results for `Cc1nc(C(F)(F)F)cn1-c1ccc(-c2cc(F)c(CO)c(S(C)(=O)=O)c2)cc1-c1ccnn1-c1ccc(Cl)nc1` [Example 297, (3′-(1-(6-chloropyridin-3-yl)-1H-pyrazol-5-yl)-3-fluoro-4′-(2-methyl-4-(trifluoromethyl)-1H-imidazol-1-yl)-5-(methylsulfonyl)biphenyl-4-yl)methanol] were, in that order, 351 nM and 75%.
The like results for `Cc1nc(C(F)(F)F)cn1-c1ccc(-c2ccc(CO)c(S(C)(=O)=O)c2)cc1-c1ccnn1-c1ccc(Cl)nc1` [Example 298, (3′-(1-(6-chloropyridin-3-yl)-1H-pyrazol-5-yl)-4′-(2-methyl-4-(trifluoromethyl)-1H-imidazol-1-yl)-3-(methylsulfonyl)biphenyl-4-yl)methanol] were, in that order, 317 nM and 71%.
For `Cc1cc(-c2cc(-c3cc(F)c(CO)c(S(C)(=O)=O)c3)ccc2-n2cc(C(F)(F)F)nc2C)n(-c2ccc3c(c2)OC(F)(F)O3)n1` [Example 299, (3′-(1-(2,2-difluorobenzo[d][1,3]dioxol-5-yl)-3-methyl-1H-pyrazol-5-yl)-3-fluoro-4′-(2-methyl-4-(trifluoromethyl)-1H-imidazol-1-yl)-5-(methylsulfonyl)biphenyl-4-yl)methanol], the EC50 is 17 nM and the Emax came to 77%.
